# According to patent EP1285920A1, “C10 Ester sustituted taxanes as antitumor agents” (Florida State University Research Foundation, Inc., priority 2001, dated 2003):
# Tested on: HCT116
# Assay: In Vitro cytotoxicity measured by the cell colony formation assay
# Format: cell-based, human
# Details: HCT116 colony formation; 72 h with drug, colonies counted after 7 days; ID50 = concentration producing 50% inhibition of colony formation; read-out: IN VITRO ID 50 HCT116
# Outline: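 Four hundred cells per dish in McCoy's 5a medium with 10% FBS were allowed to attach for 5 h at 37 °C. They were then exposed to compound for 72 h at 37 °C, added as a 10× stock made fresh in medium. After HBSS rinsing and refeeding, colonies were counted after 7 days.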
row,Compound,IC50 [nM]
1,CC=CC(=O)OC1C(=O)C2(C)C(O)CC3OCC3(OC(C)=O)C2C(OC(=O)c2ccccc2)C2(O)CC(OC(=O)C(O)C(NC(=O)OC(C)(C)C)C3CCC3)C(C)=C1C2(C)C (centres unmarked) [Compound 2424],< 10
2,CC=CC(=O)OC1C(=O)C2(C)C(O)CC3OCC3(OC(C)=O)C2C(OC(=O)c2ccccc2)C2(O)CC(OC(=O)C(O)C(NC(=O)OC(C)(C)C)c3ccoc3)C(C)=C1C2(C)C (centres unmarked) [Compound 2380],< 1
3,CC=CC(=O)OC1C(=O)C2(C)C(O)CC3OCC3(OC(C)=O)C2C(OC(=O)c2ccccc2)C2(O)CC(OC(=O)C(O)C(NC(=O)OC(C)(C)C)c3ccco3)C(C)=C1C2(C)C (centres unmarked) [Compound 2379],< 1

# Same assay, conditions: Homo sapiens, HCT-116; read-out: IN VITRO ID 50 HCT116
row,Compound,IC50 [nM]
1,CC(=O)OC12COC1CC(O)C1(C)C(=O)C(OC(=O)C(C)C)C3=C(C)C(OC(=O)C(O)C(NC(=O)OC(C)(C)C)C(C)C)CC(O)(C(OC(=O)c4ccccc4)C21)C3(C)C (centres unmarked) [Compound 2306],< 10
2,CCC(=O)O[C@H]1C(=O)[C@@]2(C)[C@H]([C@H](OC(=O)c3ccccc3)[C@]3(O)C[C@H](OC(=O)[C@H](O)[C@H](C=C(C)C)NC(=O)c4ccccc4)C(C)=C1C3(C)C)[C@]1(OC(C)=O)CO[C@@H]1C[C@@H]2O [Compound 0625],< 1
3,CC(=O)O[C@@]12CO[C@@H]1C[C@H](O)[C@@]1(C)C(=O)[C@H](OC(=O)C3CC3)C3=C(C)[C@@H](OC(=O)[C@H](O)[C@@H](NC(=O)c4ccco4)c4cccs4)C[C@@](O)([C@@H](OC(=O)c4ccccc4)[C@H]21)C3(C)C [Compound 3297],< 1
4,CC(=O)O[C@@]12CO[C@@H]1C[C@H](O)[C@@]1(C)C(=O)[C@H](OC(=O)c3ccco3)C3=C(C)[C@@H](OC(=O)[C@H](O)[C@@H](NC(=O)OC(C)(C)C)c4cccnc4)C[C@@](O)([C@@H](OC(=O)c4ccccc4)[C@H]21)C3(C)C [Compound 2124],< 10
5,CC(=O)O[C@@]12CO[C@@H]1C[C@H](O)[C@@]1(C)C(=O)[C@H](OC(=O)c3ccco3)C3=C(C)[C@@H](OC(=O)[C@H](O)[C@@H](NC(=O)OC(C)(C)C)c4ccsc4)C[C@@](O)([C@@H](OC(=O)c4ccccc4)[C@H]21)C3(C)C [Compound 2173],< 1
6,CCCC(=O)N[C@@H](c1ccco1)[C@@H](O)C(=O)O[C@H]1C[C@@]2(O)[C@@H](OC(=O)c3ccccc3)[C@@H]3[C@]4(OC(C)=O)CO[C@@H]4C[C@H](O)[C@@]3(C)C(=O)[C@H](OC(=O)C3CC3)C(=C1C)C2(C)C [Compound 4062],< 1
7,CC(=O)O[C@@]12CO[C@@H]1C[C@H](O)[C@@]1(C)C(=O)[C@H](OC(=O)c3cccs3)C3=C(C)[C@@H](OC(=O)[C@H](O)[C@@H](NC(=O)OC(C)(C)C)c4cccnc4)C[C@@](O)([C@@H](OC(=O)c4ccccc4)[C@H]21)C3(C)C [Compound 1948],< 10
8,CCC(=O)O[C@H]1C(=O)[C@@]2(C)[C@H]([C@H](OC(=O)c3ccccc3)[C@]3(O)C[C@H](OC(=O)[C@H](O)[C@@H](NC(=O)c4ccco4)c4ccco4)C(C)=C1C3(C)C)[C@]1(OC(C)=O)CO[C@@H]1C[C@@H]2O [Compound 3818],< 1
9,CCOC(=O)N[C@@H](c1cccs1)[C@@H](O)C(=O)O[C@H]1C[C@@]2(O)[C@@H](OC(=O)c3ccccc3)[C@@H]3[C@]4(OC(C)=O)CO[C@@H]4C[C@H](O)[C@@]3(C)C(=O)[C@H](OC(=O)CC)C(=C1C)C2(C)C [Compound 3370],< 1
10,CC(=O)O[C@@]12CO[C@@H]1C[C@H](O)[C@@]1(C)C(=O)[C@H](OC(=O)C3CC3)C3=C(C)[C@@H](OC(=O)[C@H](O)[C@@H](NC(=O)c4ccccc4)c4ccc([N+](=O)[O-])cc4)C[C@@](O)([C@@H](OC(=O)c4ccccc4)[C@H]21)C3(C)C [Compound 2869],< 10
11,CC(=O)O[C@@]12CO[C@@H]1C[C@H](O)[C@@]1(C)C(=O)[C@H](OC(=O)C3CC3)C3=C(C)[C@@H](OC(=O)[C@H](O)[C@@H](NC(=O)c4ccccc4)c4ccncc4)C[C@@](O)([C@@H](OC(=O)c4ccccc4)[C@H]21)C3(C)C [Compound 2855],< 1
12,CC(=O)O[C@@]12CO[C@@H]1C[C@H](O)[C@@]1(C)C(=O)[C@H](OC(=O)C3CC3)C3=C(C)[C@@H](OC(=O)[C@H](O)[C@@H](NC(=O)OCC(C)C)c4ccco4)C[C@@](O)([C@@H](OC(=O)c4ccccc4)[C@H]21)C3(C)C [Compound 3102],< 1
13,CC(=O)O[C@@]12CO[C@@H]1C[C@H](O)[C@@]1(C)C(=O)[C@H](OC(=O)C3CC3)C3=C(C)[C@@H](OC(=O)[C@H](O)[C@@H](NC(=O)c4ccccc4)c4ccccn4)C[C@@](O)([C@@H](OC(=O)c4ccccc4)[C@H]21)C3(C)C [Compound 2844],< 10
14,CCCC(=O)N[C@@H](c1cccs1)[C@@H](O)C(=O)O[C@H]1C[C@@]2(O)[C@@H](OC(=O)c3ccccc3)[C@@H]3[C@]4(OC(C)=O)CO[C@@H]4C[C@H](O)[C@@]3(C)C(=O)[C@H](OC(=O)C3CC3)C(=C1C)C2(C)C [Compound 3132],< 1
15,CC(=O)O[C@@]12CO[C@@H]1C[C@H](O)[C@@]1(C)C(=O)[C@H](OC(=O)C3CC3)C3=C(C)[C@@H](OC(=O)[C@H](O)[C@@H](NC(=O)OC(C)(C)C)c4ccc([N+](=O)[O-])cc4)C[C@@](O)([C@@H](OC(=O)c4ccccc4)[C@H]21)C3(C)C [Compound 0879],< 1
16,CCOC(=O)N[C@@H](c1cccs1)[C@@H](O)C(=O)O[C@H]1C[C@@]2(O)[C@@H](OC(=O)c3ccccc3)[C@@H]3[C@]4(OC(C)=O)CO[C@@H]4C[C@H](O)[C@@]3(C)C(=O)[C@H](OC(=O)C3CC3)C(=C1C)C2(C)C [Compound 4051],< 1

row,Compound,IC50 [nM]
1,CCOC(=O)N[C@@H](c1ccco1)[C@@H](O)C(=O)O[C@H]1C[C@@]2(O)[C@@H](OC(=O)c3ccccc3)[C@@H]3[C@]4(OC(C)=O)CO[C@@H]4C[C@H](O)[C@@]3(C)C(=O)[C@H](OC(=O)CC)C(=C1C)C2(C)C [Compound 3535],< 1
2,CCCC(=O)O[C@H]1C(=O)[C@@]2(C)[C@H]([C@H](OC(=O)c3ccccc3)[C@]3(O)C[C@H](OC(=O)[C@H](O)[C@@H](NC(=O)OCC)c4ccco4)C(C)=C1C3(C)C)[C@]1(OC(C)=O)CO[C@@H]1C[C@@H]2O [Compound 3693],< 1
3,CC(=O)OC12COC1CC(O)C1(C)C(=O)C(OC(=O)C(C)C)C3=C(C)C(OC(=O)C(O)C(NC(=O)OC(C)(C)C)c4ccc([N+](=O)[O-])cc4)CC(O)(C(OC(=O)c4ccccc4)C21)C3(C)C (centres unmarked) [Compound 2320],< 1
4,CCC(=O)O[C@H]1C(=O)[C@@]2(C)[C@H]([C@H](OC(=O)c3ccccc3)[C@]3(O)C[C@H](OC(=O)[C@H](O)[C@@H](NC(=O)OC(C)(C)C)C(C)C)C(C)=C1C3(C)C)[C@]1(OC(C)=O)CO[C@@H]1C[C@@H]2O [Compound 0583],< 10
5,CC(=O)O[C@@]12CO[C@@H]1C[C@H](O)[C@@]1(C)C(=O)[C@H](OC(=O)C3CC3)C3=C(C)[C@@H](OC(=O)[C@H](O)[C@@H](NC(=O)OC(C)(C)C)c4ccccn4)C[C@@](O)([C@@H](OC(=O)c4ccccc4)[C@H]21)C3(C)C [Compound 2802],< 1
6,CCCC(=O)O[C@H]1C(=O)[C@@]2(C)[C@H]([C@H](OC(=O)c3ccccc3)[C@]3(O)C[C@H](OC(=O)[C@H](O)[C@@H](NC(=O)OC(C)C)c4ccco4)C(C)=C1C3(C)C)[C@]1(OC(C)=O)CO[C@@H]1C[C@@H]2O [Compound 3417],< 1
7,CC(=O)O[C@@]12CO[C@@H]1C[C@H](O)[C@@]1(C)C(=O)[C@H](OC(=O)C3CC3)C3=C(C)[C@@H](OC(=O)[C@H](O)[C@@H](NC(=O)c4ccccc4)C4CC4)C[C@@](O)([C@@H](OC(=O)c4ccccc4)[C@H]21)C3(C)C [Compound 0923],< 1
8,CC=CC(=O)NC(c1ccsc1)C(O)C(=O)OC1CC2(O)C(OC(=O)c3ccccc3)C3C4(OC(C)=O)COC4CC(O)C3(C)C(=O)C(OC(=O)C3CC3)C(=C1C)C2(C)C (centres unmarked) [Compound 5040],< 1
9,CC(=O)O[C@@]12CO[C@@H]1C[C@H](O)[C@@]1(C)C(=O)[C@H](OC(=O)C3CC3)C3=C(C)[C@@H](OC(=O)[C@H](O)[C@@H](NC(=O)OC(C)C)c4cccs4)C[C@@](O)([C@@H](OC(=O)c4ccccc4)[C@H]21)C3(C)C [Compound 3071],< 1
10,CCC(=O)O[C@H]1C(=O)[C@@]2(C)[C@H]([C@H](OC(=O)c3ccccc3)[C@]3(O)C[C@H](OC(=O)[C@H](O)[C@@H](NC(=O)c4ccccc4)C4CCC4)C(C)=C1C3(C)C)[C@]1(OC(C)=O)CO[C@@H]1C[C@@H]2O [Compound 0720],< 10
11,CC(=O)O[C@@]12CO[C@@H]1C[C@H](O)[C@@]1(C)C(=O)[C@H](OC(=O)C=C(C)C)C3=C(C)[C@@H](OC(=O)[C@H](O)[C@H](C=C(C)C)NC(=O)OC(C)(C)C)C[C@@](O)([C@@H](OC(=O)c4ccccc4)[C@H]21)C3(C)C [Compound 2455],< 10
12,CCCC(=O)N[C@@H](c1ccco1)[C@@H](O)C(=O)O[C@H]1C[C@@]2(O)[C@@H](OC(=O)c3ccccc3)[C@@H]3[C@]4(OC(C)=O)CO[C@@H]4C[C@H](O)[C@@]3(C)C(=O)[C@H](OC(=O)CC)C(=C1C)C2(C)C [Compound 3219],< 1
13,CCCC(=O)O[C@H]1C(=O)[C@@]2(C)[C@H]([C@H](OC(=O)c3ccccc3)[C@]3(O)C[C@H](OC(=O)[C@H](O)[C@@H](NC(=O)OC(C)(C)C)c4ccccc4)C(C)=C1C3(C)C)[C@]1(OC(C)=O)CO[C@@H]1C[C@@H]2O [Compound 1060],< 1
14,CC(=O)O[C@@]12CO[C@@H]1C[C@H](O)[C@@]1(C)C(=O)[C@H](OC(=O)C3CC3)C3=C(C)[C@@H](OC(=O)[C@H](O)[C@@H](NC(=O)C=C(C)C)c4cccs4)C[C@@](O)([C@@H](OC(=O)c4ccccc4)[C@H]21)C3(C)C [Compound 4329],< 1
15,CCC(=O)OC1C(=O)C2(C)C(O)CC3OCC3(OC(C)=O)C2C(OC(=O)c2ccccc2)C2(O)CC(OC(=O)C(O)C(NC(=O)OC(C)(C)C)c3ccoc3)C(C)=C1C2(C)C (centres unmarked) [Compound 5495],< 1
16,CC(=O)O[C@@]12CO[C@@H]1C[C@H](O)[C@@]1(C)C(=O)[C@H](OC(=O)C3CC3)C3=C(C)[C@@H](OC(=O)[C@H](O)[C@@H](NC(=O)OC(C)(C)C)c4ccccc4)C[C@@](O)([C@@H](OC(=O)c4ccccc4)[C@H]21)C3(C)C [Compound 0882],< 1
